US9593305B2, “Differentiation of pluripotent stem cells” (Janssen Biotech, Inc., priority 2008, dated 2017)

Key:
[1] = test system: H1 human embryonic stem cells; assay: Analog screening with GDF-8 and growth factor/agonist pool (Example 8, Tables 7 and 8); assay type: cell-based
Method: Briefly, clusters of H1 human embryonic stem cells were grown on reduced growth factor […]™ (Invitrogen; Cat #356231)-coated tissue culture plastic. Cells were passaged using collagenase (Invitrogen; Cat #17104-019) treatment and gentle scraping, washed to remove residual enzyme, and plated with even dispersal at a ratio of 1:1 (surface area) on reduced growth factor […]™-coated 96-well black plates (Packard ViewPlates; PerkinElmer; Cat #6005182) using volumes of 100 μl/well. Cells were allowed to attach as clusters and then recover log phase growth over a 1 to 3 day period, feeding daily with MEF conditioned medium supplemented with 8 ng/ml bFGF (R&D Systems; Cat #233-FB). Plates were maintained at 37° C., 5% CO2 in a humidified box throughout the duration of assay. Growth factors purchased from R&D Systems were EGF (Cat #236-EG), FGF4 (Cat #235-F4), PDGF-A (Cat #221-AA), PDGF-D (Cat #1159-SB), PDGF-A/B (Cat #222-AB). […] Screening was conducted using a library of compounds that were made available as 5 mM stocks in 96-well plate format, solubilized in 100% DMSO (Sigma; Cat #D2650) and stored at −80° C. The compounds were further diluted to an intermediate concentration of 0.2 mM in 50 mM HEPES (Invitrogen; Cat #15630-080), 20% DMSO and stored at 4° C. Test conditions were performed in single wells, feeding on alternate days over a four-day assay period. Primary screening assays were initiated by aspirating culture medium from each well followed by three washes in PBS (Invitrogen; Cat #14190) to remove residual growth factors and serum. On the first day of assay, test volumes of 200 μl per well were added back containing DMEM:F12 base medium (Invitrogen; Cat #11330-032) supplemented with 0.5% FCS (HyClone; […] Cat #1324-WN) plus 2.5 μM compound. All remaining growth factors were tested at a final assay concentration of 50 ng/ml (EGF, FGF4, PDGF-A, PDGF-A/B, VEGF) with the exception of GDF-8 tested at 25 ng/ml. […] Cat #120-14). […] All remaining growth factors were tested at a final assay concentration of 50 ng/ml (EGF, FGF4, PDGF-A, PDGF-A/B, VEGF) with the exception of GDF-8 tested at 25 ng/ml. […] Cat #120-14). Negative control samples contained DMEM:F12 base medium supplemented with 2% FCS. […] At the conclusion of four-days of culture, assay plates were washed twice with PBS (Invitrogen; Cat #14190), fixed with 4% paraformaldehyde (Alexis Biochemical; Cat #ALX-350-011) at room temperature for 20 minutes, then washed three times with PBS and permeabilized with 0.5% Triton X-100 (Sigma; Cat #T8760-2) for 20 minutes at room temperature. Cells were washed again three times with PBS and blocked with 4% chicken serum (Invitrogen; Cat #16110082) in PBS for 30 minutes at room temperature. Primary antibody (goat anti-human SOX17; R&D Systems; Cat #AF1924) was diluted 1:100 in 4% chicken serum and added to each well for one hour at room temperature. Alexa Fluor 488 conjugated secondary antibody (chicken anti-goat IgG; Molecular Probes; Cat #AZ1467) was diluted 1:200 in PBS and added to each sample well after washing three times with PBS. To counterstain nuclei, 4 μg/ml Hoechst 33342 (Invitrogen; Cat #H3570) was added for ten minutes at room temperature. Plates were washed once with PBS and left in 100 μl/well PBS for imaging. Imaging was performed using an IN Cell Analyzer 1000 (GE Healthcare) utilizing the 51008bs dichroic for cells stained with Hoechst 33342 and Alexa Fluor 488. Exposure times were optimized from positive control wells and from untreated negative control wells stained with secondary antibody alone. Images from 15 fields per well were acquired to compensate for any cell loss during the bioassay and subsequent staining procedures. […] Segmentation for the nuclei was determined based on gray-scale levels (baseline range 100-300) and nuclear size. Averages and standard deviations were calculated for each replicate data set. […]

[2] = test system: H1 human embryonic stem cells; assay: Analogue screening in combination with only GDF-8, SOX17 (Example 21, Tables 18 and 19); assay type: cell-based; design: Sox17 Expression: % of positive control / Cell Number: % of positive control: tested at 2.5 µM; settings: compound in combination with GDF8; for Cell Number: Average Total Cell Number / Sox17 Expression: Average Total Intensity: four assay plates; for Cell Number: % of positive control / Sox17 Expression: % of positive control: relative to Activin A/Wnt3a of the same plate
Procedure, shortened: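 H1 human ES cells treated four days with 200 ng/ml GDF-8 plus 2.5 μM compound (day 1, 0.5% FCS), GDF-8 alone in 2% FCS on day 3; triplicates. Fixed cells immunostained for SOX17 with Hoechst counterstain, imaged at 15 fields/well; total SOX17 intensity normalized to activin A/Wnt3a positive control.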

[3] = Plate 2, compound + EGF, FGF, PDGF-A, VEGF, PDGF-D, muscimol, GDF8
[4] = Plate 2, compound + EGF, FGF, PDGF-A, VEGF, PDGF-D, muscimol, GDF8, positive control Activin A/Wnt3a
[5] = Table 8: hits with greater than 25% activity of the positive control, with GDF-8 and growth factors/agonists
[6] = Plate 1, compound + EGF, FGF, PDGF-A, VEGF, PDGF-D, muscimol, GDF8
[7] = Plate 1, compound + EGF, FGF, PDGF-A, VEGF, PDGF-D, muscimol, GDF8, positive control Activin A/Wnt3a

SMILES | Cell Number, Average Total Cell Number [1, 3] | Sox17 Expression, Average Total Intensity [1, 3] | Cell Number, % of positive control [1, 4] | Sox17 Expression, % of positive control [1, 4] | Cell Number, % of positive control [1, 5] | Sox17 Expression, % of positive control [1, 5] | Sox17 Expression, Average Total Intensity [1, 5] | Cell Number: Average Total Cell Number [2] | Sox17 Expression: Average Total Intensity [2] | Cell Number: % of positive control [2] [%] | Sox17 Expression: % of positive control [2] [%] | Cell Number, Average Total Cell Number [1, 6] | Sox17 Expression, Average Total Intensity [1, 6] | Cell Number, % of positive control [1, 7] | Sox17 Expression, % of positive control [1, 7]
CN1CCCc2cccc(c2)-c2ncnc(n2)Nc2cccc(c2)CCNC(=O)C1 [Compound 28, 18-Methyl-3,5,7,15,18,28-hexaazatetracyclo[20.3.1.1˜2,6˜0.1˜8,12˜]octacosa-1(26), 2(28), 3,5,8(27), 9,11,22,24-nonaen-16-one] | 7591 | 8.77E+07 | 48.0 % of positive control | 30.7 % of positive control | 48.0 % of positive control | 30.7 % of positive control | 8.77E+07 | 5236 | 4.03E+07 | 37.5 | 13.1 | – | – | – | –
O=C1NCCCc2cc(ccc2F)-c2ncnc(n2)Nc2cc(Cl)cc(c2)CN2CCCC1C2 (stereo not drawn) [Compound 26, 10-Chloro-25-fluoro-3,5,7,14,20,31-hexaazapentacyclo[22.3.1.1˜2,6˜0.1˜8,12˜0.1˜14,18˜]hentriaconta-1(28), 2(31), 3,5,8(30), 9,11,24,26-nonaen-19-one] | – | – | – | – | 55.4 % of positive control | 33.1 % of positive control | 8.30E+07 | 4896 | 1.65E+07 | 32.6 | 4.8 | 7415 | 8.30E+07 | 55.4 % of positive control | 33.1 % of positive control
O=C1CCN2CCN(CC2)Cc2cc(ccc2Cl)Nc2ncnc(n2)-c2ccnc(c2)CCCN1 [Compound 27, 4-Chloro-1,8,10,12,17,22,26,32-octaazapentacyclo[24.2.2.1˜3,7˜1.˜9,13˜0.1˜14,18˜1]tritriaconta-3(33), 4,6,9(32), 10,12,14(31), 15,17-nonaen-23-one] | 8044 | 8.81E+07 | 50.9 % of positive control | 30.8 % of positive control | 50.9 % of positive control | 30.8 % of positive control | 8.81E+07 | 3721 | 1.19E+07 | 26.7 | 3.9 | – | – | – | –
